Ends that are not written are not given here.
Columns and labels:
PAR2 = molecular target: T1, PAR2 (Homo sapiens, UniProt P55085); assay: Flow cytometry of PAR2 expression in A549 cells after PAR2 stimulation; assay type: cell-based; settings: 250 μM peptide, 24 hours post-stimulation, permeabilized cells
T1 construct: endogenous in cells; host or cells: A549 (human alveolar type II epithelial cell line, ATCC)
T1 sequence (P55085 26-397): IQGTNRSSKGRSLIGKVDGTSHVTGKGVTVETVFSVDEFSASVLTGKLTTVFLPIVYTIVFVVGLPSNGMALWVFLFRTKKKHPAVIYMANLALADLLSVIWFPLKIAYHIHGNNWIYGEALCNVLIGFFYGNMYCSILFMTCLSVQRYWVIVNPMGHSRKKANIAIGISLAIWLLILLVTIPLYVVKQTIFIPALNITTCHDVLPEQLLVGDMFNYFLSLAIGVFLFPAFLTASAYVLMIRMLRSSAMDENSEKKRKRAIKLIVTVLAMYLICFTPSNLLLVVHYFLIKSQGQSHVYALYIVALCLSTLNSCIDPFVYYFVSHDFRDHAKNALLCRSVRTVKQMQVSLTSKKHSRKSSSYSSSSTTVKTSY
Protocol: A549 cells were infected or not at a MOI of 0.001 for 24 hours and flow cytometry experiments were done on permeabilized cells, as previously described (Riteau B. et al. 2001; Riteau B. et al. 2001), using the SAM11 anti-PAR2 antibody (Santa-cruz biotechnology, Inc, USA). PAR2 stimulation of A549 cells was performed using 250 μM of PAR2 specific activating peptide SLIGRL-NH2 and flow cytometry experiment was performed 24 hours post-stimulation.

IAV A/PR/8/34 (H1N1) = assay type: cell-based, influenza virus type A
RANTES [1] = assay type: cell-based, human
IFN-γ [2] = assay type: cell-based, human
IAV A/PR/8/34 [3] = tested on: IAV A/PR/8/34; design: species or system C57BL/6 mice; settings: mouse, in vivo
IAV A/PR/8/34 [4] = tested on: IAV A/PR/8/34; design: species or system C57BL/6 mice; settings: mouse, in vivo; remark: listed apart in the source
IAV A/PR/8/34 [5] = tested on: IAV A/PR/8/34; design: species or system C57BL/6 mice; settings: mouse, in vivo; remark: listed apart in the source
neutrophils = tested on: neutrophils; design: species or system C57BL/6 mice; settings: mouse, in vivo
RANTES [6] = tested on: RANTES; design: species or system C57BL/6 mice; settings: mouse, in vivo
IFN-γ [7] = tested on: IFN-γ; design: species or system C57BL/6 mice; settings: mouse, in vivo
IAV A/PR/8/34 [8] = assay: Survival and weight loss of IAV-infected IFN-γ-deficient mice treated with peptide; settings: 50 000 pfu/mice
Description: Six-weeks-old IFN-γ-deficient mice (background C57BL/6, n=36) obtained from the INRA “Experimental Infectiology Platform” of Tours (France) were anaesthetized once and infected intranasally with 50 000 pfu of A/PR/8/34 in the presence or absence of SLIGRL-NH2. C57BL/6J/WT mice (n=20) were used as control. Infected mice were then monitored daily for survival.

Substance: SLIGRL-NH2
- effect on PAR2 synthesis (PAR2): had no effect
- inhibition of IAV replication in the presence of anti-IFNγ neutralizing antibody (IAV A/PR/8/34 (H1N1)): could be reversed
- virus production (IAV A/PR/8/34 (H1N1)): produced less virus
- RANTES level (RANTES [1]): at the limit of detection
- RANTES production (RANTES [1]): significantly inhibited
- IFN-γ level (IFN-γ [2]): at the limit of detection
- IFN-γ release (IFN-γ [2]): induced IFN-γ release
- time of peak IFN-γ release (IFN-γ [2]): 8 hours post-infection
- protection stable, inhibiting mortality until (IAV A/PR/8/34 [3]): ≥ 12 days
- survival rate (IAV A/PR/8/34 [3]): protected mice from death, in a dose-dependent manner
- decreased infectious virus load in lungs at lower doses of IAV infection (IAV A/PR/8/34 [4]): also observed
- infectious virus load in lungs (IAV A/PR/8/34 [4]): significantly decreased
- histopathologic examination of the lungs (IAV A/PR/8/34 [5]): lack evidence of pathology
- influx of neutrophils in BAL (neutrophils): significantly decreased
- number of neutrophils in BAL at 48-hours compared to level at 24-hours (neutrophils): significantly increased
- IAV-induced increase of RANTES in BAL (RANTES [6]): significantly inhibited
- release of RANTES in BAL (RANTES [6]): three-fold increase
- IFN-γ release in BAL after IAV infection (IFN-γ [7]): significant increase
- release of IFN-γ in BAL (IFN-γ [7]): no effect
- kinetic of weight loss after IAV infection (IAV A/PR/8/34 [8]): did not modify
- protection from death (IAV A/PR/8/34 [8]): did not protect mice from death

Substance: LRGILS-NH2 [reference compound]
- survival rate (IAV A/PR/8/34 [3]): had no effect
- overall appearance of lungs (photographic pictures) (IAV A/PR/8/34 [5]): severely injured
- IFN-γ release in BAL after IAV infection (IFN-γ [7]): No significant increase
